# Experimental data as given in patent US8063088B2 (Hoffmann-La Roche Inc., priority 2008, dated 2011).
# Columns and labels:
# [1] = biological target: T1, human LXR alpha (Homo sapiens, UniProt Q13133); assay: Radioligand binding assay (SPA), LXR alpha LBD; settings: radioligand displacement, LXRα-LBD on SPA beads; read-out: LXRalpha Binding IC50
# T1 construct: human LXR alpha (aa 164 to 447); unspecified tag ('tagged versions'); made in house; host or cells: E. coli BL21 (pLysS)
# T1 sequence (Q13133 164-447): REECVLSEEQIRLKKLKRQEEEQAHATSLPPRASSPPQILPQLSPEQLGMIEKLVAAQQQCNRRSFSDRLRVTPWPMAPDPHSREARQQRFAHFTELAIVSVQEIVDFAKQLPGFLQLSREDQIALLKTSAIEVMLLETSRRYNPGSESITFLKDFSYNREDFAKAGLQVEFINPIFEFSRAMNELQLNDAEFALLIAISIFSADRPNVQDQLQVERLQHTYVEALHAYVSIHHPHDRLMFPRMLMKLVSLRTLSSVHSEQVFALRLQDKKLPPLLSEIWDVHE
# Procedure: (§1) The following tests were carried out in order to determine the activity of the compounds of the present invention. Background information on the performed assays can be found in: Nichols J S et al. “Development of a scintillation proximity assay for peroxisome proliferator-activated receptor gamma ligand binding domain”, Anal Biochem. 1998, 257: 112-119.
# (§2) Mammalian expression vectors were constructed to express full-length human LXR alpha and LXR beta. Bacterial expression vectors were constructed to produce tagged versions of the ligand binding domains (LBD) of human LXR alpha (aa 164 to 447) and human LXR beta (aa 155 to 460). To accomplish this, the portions of the sequences encoding the LBDs were amplified from the full-length clones by PCR and then subcloned into the plasmid vectors. Final clones were verified by DNA sequence analysis (Willy et al., Genes Dev. 1995, 9:1033-45; Song et al., Proc Natl Acad Sci USA. 1994, 91:10809-13).
# (§3) Induction, expression, and purification of LBD proteins were performed in E. coli strain BL21 (pLysS) cells by standard methods (Ref: Current Protocols in Molecular Biology, Wiley Press, edited by Ausubel et al).
# (§4) Radioligand Binding Assay
# (§5) LXR alpha and LXR beta receptor binding were assayed in buffer consisting of 50 mM HEPES, pH 7.4, 10 mM NaCl, 5 mM MgCl2. For each 96-well reaction, 500 ng of LXRα-LBD or 700 ng of LXR beta-LBD proteins were bound to 80 μg or 40 μg SPA beads respectively, in a final volume of 50 μl by shaking. The resulting slurry was incubated for 1 h at RT and centrifuged for 2 min at 1300×g. The supernatant containing unbound protein was removed, and the semi-dry pellet containing the receptor-coated beads was re-suspended in 50 μl of buffer. Radioligand (eg. 100,000 dpm of (N-(2,2,2-trifluoroethyl)-N-[4-(2,2,2-trifluoro-1-hydroxy-1-trifluoromethylethyl)-phenyl]-benzenesulfonamide)) was added, and the reaction incubated at RT for 1 h in the presence of test compounds, and then scintillation proximity counting was performed. All binding assays were performed in 96-well plates and the amount of bound ligand was measured on a Packard TopCount using OptiPlates (Packard). Dose response curves were measured within a range of concentration from 10^−10 M to 10^−4 M.
# [2] = biological target: T2, human LXR beta (Homo sapiens, UniProt P55055); assay: Radioligand binding assay (SPA), LXR beta LBD; settings: radioligand displacement, LXR beta-LBD on SPA beads; read-out: LXRbeta Binding IC50
# T2 construct: human LXR beta (aa 155 to 460); unspecified tag ('tagged versions'); made in house; host or cells: E. coli BL21 (pLysS)
# T2 sequence (P55055 155-460): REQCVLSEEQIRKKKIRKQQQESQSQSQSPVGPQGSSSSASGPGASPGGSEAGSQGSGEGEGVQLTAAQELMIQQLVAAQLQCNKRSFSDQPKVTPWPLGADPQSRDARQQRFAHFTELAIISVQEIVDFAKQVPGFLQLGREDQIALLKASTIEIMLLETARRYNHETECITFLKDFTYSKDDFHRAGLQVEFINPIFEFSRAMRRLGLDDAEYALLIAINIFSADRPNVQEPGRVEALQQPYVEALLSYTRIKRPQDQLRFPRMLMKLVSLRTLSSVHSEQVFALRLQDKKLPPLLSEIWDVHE
# Procedure: as §1, §2, §3, §4, §5
SMILES,IC50 [1] [µM],IC50 [2] [µM]
"CC(C)(C)OC(=O)N1CC[C@@H](c2ccccc2)[C@H](c2cccc(-c3cccc(S(C)(=O)=O)c3)c2)C1 (relative stereo) [Example 38, trans-3-(3′-Methanesulfonyl-biphenyl-3-yl)-4-phenyl-piperidine-1-carboxylic acid tert-butyl ester]",0.16,0.025
"CC(C)N1C(=O)N(S(=O)(=O)c2ccccc2)CC1c1cccc(-c2cc(F)ccc2Cl)c1 (stereo not shown) [Example 25, 1-Benzenesulfonyl-4-(2′-coro-5′-fluoro-biphenyl-3-yl)-3-isopropyl-imidazolidin-2-one]",2.03,0.265
